Reference: patent publication US11395847B2, “Acylated GLP-1/GLP-2 dual agonists” (Zealand Pharma A/S, priority 2016, dated 2022)
*1 amine or outer side, *2 acyl side, *3 side chain or, on linkers, in order; H or OH if unused. Where a SMILES comes first, the peptide text is derived from it. Side-chain parts run from the residue outwards. [ ]: non-standard residue; d: D form. The star is where a group is joined. C20 diacid = O=C(O)CCCCCCCCCCCCCCCCCCC(=O)*; γGlu = O=C(O)[C@H](CCC(=O)[*:2])N[*:1]; AEEA = NCCOCCOCC(=O)O; Aib = CC(C)(N)C(=O)O

The molecules below were run against T1, human GLP-2 receptor (Homo sapiens, UniProt O95838, D470N) (assay: GLP-2 receptor potency assay (cAMP ALPHASCREEN, HEK293 cells stably expressing GLP-2 R)). Settings: cAMP response, HEK293 cells expressing human GLP-2 R; read-out: EC50 GLP-2.
T1 construct: expressed in transfected cells
T1 sequence (O95838 1-553 D470N): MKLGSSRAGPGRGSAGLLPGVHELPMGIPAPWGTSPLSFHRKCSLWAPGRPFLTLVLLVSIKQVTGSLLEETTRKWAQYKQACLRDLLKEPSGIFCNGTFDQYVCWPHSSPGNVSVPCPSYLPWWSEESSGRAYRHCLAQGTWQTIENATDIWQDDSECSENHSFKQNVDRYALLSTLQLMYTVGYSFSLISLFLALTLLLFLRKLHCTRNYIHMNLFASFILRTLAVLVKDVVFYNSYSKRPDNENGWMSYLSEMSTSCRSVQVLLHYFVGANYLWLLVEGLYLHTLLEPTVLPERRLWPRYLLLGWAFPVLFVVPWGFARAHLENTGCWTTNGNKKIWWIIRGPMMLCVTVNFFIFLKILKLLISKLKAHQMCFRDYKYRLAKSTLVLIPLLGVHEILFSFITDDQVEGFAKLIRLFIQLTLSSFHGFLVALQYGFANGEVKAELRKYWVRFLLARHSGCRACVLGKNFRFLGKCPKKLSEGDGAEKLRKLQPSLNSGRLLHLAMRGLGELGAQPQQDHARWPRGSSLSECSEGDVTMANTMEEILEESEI
Type: cell-based
Source text: One useful in vitro assay for measuring GLP-1 and GLP-2 receptor activity is quantitation of cAMP, i.e. 3′-5′-cyclic adenosine monophosphate, which is a second messenger essential in many biological processes, and one of the most ubiquitous mechanisms for regulating cellular functions.
For subcloning into a mammalian expression vector, primers for subcloning were obtained from DNA-Technology, Risskov, Denmark. The 5′ and 3′ primers used for the PCR reaction include terminal restriction sites for cloning and the context of the 5′ primer is modified to a Kozak consensus without changing the sequence of the product encoded by the ORF. […] The generated PCR product was purified using GFX PCR and Gel band purification kit, digested with restriction enzymes and cloned into the mammalian expression vector using Rapid DNA Ligation Kit. Ligation reaction was transformed to XL10 Gold Ultracompetent cells and colonies were picked for DNA production using ENDOFREE® Plasmid maxi kit. Subsequent sequence analysis was conducted by MWG Eurofins, Germany.
HEK293 cells were transfected using the LIPOFECTAMINE® PLUS transfection method. The day before transfection, HEK293 cells were seeded in two T75 flasks at a density of 2×10^6 cells/T75 flask in cell culturing medium without antibiotics. On the day of transfection, cells were washed with 1× DPBS and medium was replaced with OPTI-MEM© to a volume of 5 mL/T75 flask before addition of LIPOFECTAMINE®-plasmid complexes were added gently and drop wise to the cells in T75 flasks and replaced with growth medium after 3 hours and again to growth medium supplemented with 500 μg/mL G418 after 24 hours. Following 4 weeks in G418 selection, clones were picked and tested in a functional GLP-2 receptor potency assay as described below.
The cAMP ALPHASCREEN® assay from Perkin Elmer was used to quantitate the cAMP response to activation of the GLP1 and GLP2 receptor, respectively. […] Data from test compounds eliciting an increase in the intracellular level of cAMP were normalized relative to the positive and negative control (vehicle) to calculate the EC50 and maximal response from the concentration response curve.

Structure (SMILES)	EC50 [nM]
CC[C@H](C)[C@H](NC(=O)[C@H](Cc1ccccc1)NC(=O)[C@H](CC(=O)O)NC(=O)[C@H](CCCNC(=N)N)NC(=O)[C@H](C)NC(=O)[C@H](C)NC(=O)[C@H](CCCCN)NC(=O)[C@H](CCCCNC(=O)COCCOCCNC(=O)COCCOCCNC(=O)CC[C@H](NC(=O)CCCCCCCCCCCCCCCCCCC(=O)O)C(=O)O)NC(=O)[C@H](CC(=O)O)NC(=O)[C@H](CC(C)C)NC(=O)[C@@H](NC(=O)[C@@H](NC(=O)[C@H](C)NC(=O)[C@H](CC(C)C)NC(=O)[C@H](CCC(=O)O)NC(=O)[C@H](CO)NC(=O)[C@@H](NC(=O)[C@H](Cc1ccccc1)NC(=O)[C@H](CO)NC(=O)CNC(=O)[C@H](CCC(=O)O)NC(=O)C(C)(C)NC(=O)[C@@H](N)Cc1c[nH]cn1)[C@@H](C)O)[C@@H](C)O)[C@@H](C)CC)C(=O)N[C@@H](C)C(=O)N[C@@H](Cc1c[nH]c2ccccc12)C(=O)N[C@@H](CC(C)C)C(=O)N[C@H](C(=O)N[C@@H](CCC(=O)O)C(=O)N[C@@H](Cc1c[nH]cn1)C(=O)N[C@@H](CCCCN)C(=O)N[C@H](C(=O)N[C@H](C(=O)N[C@@H](CC(=O)O)C(=O)O)[C@@H](C)O)[C@@H](C)CC)[C@@H](C)CC [Compound 43] (H-H[Aib]EGSFTSELATILDK([AEEA-AEEA-γGlu-C20 diacid])KAARDFIAWLIEHKITD-OH)	0.15
CC[C@H](C)[C@H](NC(=O)[C@H](Cc1ccccc1)NC(=O)[C@H](CC(=O)O)NC(=O)[C@H](CCCCNC(=O)COCCOCCNC(=O)COCCOCCNC(=O)CC[C@H](NC(=O)CCCCCCCCCCCCCCCCCCC(=O)O)C(=O)O)NC(=O)[C@H](C)NC(=O)[C@H](C)NC(=O)[C@H](CCC(N)=O)NC(=O)[C@H](CCC(=O)O)NC(=O)[C@H](CC(=O)O)NC(=O)[C@H](CC(C)C)NC(=O)[C@@H](NC(=O)[C@@H](NC(=O)[C@H](C)NC(=O)[C@H](CC(C)C)NC(=O)[C@H](CCC(=O)O)NC(=O)[C@H](CO)NC(=O)[C@@H](NC(=O)[C@H](Cc1ccccc1)NC(=O)[C@@H](NC(=O)CNC(=O)[C@H](CCC(=O)O)NC(=O)C(C)(C)NC(=O)[C@@H](N)Cc1c[nH]cn1)[C@@H](C)O)[C@@H](C)O)[C@@H](C)O)[C@@H](C)CC)C(=O)N[C@@H](C)C(=O)N[C@@H](Cc1c[nH]c2ccccc12)C(=O)N[C@@H](CC(C)C)C(=O)N[C@H](C(=O)N[C@@H](CCC(=O)O)C(=O)N[C@@H](Cc1c[nH]cn1)C(=O)N[C@@H](CCCCN)C(=O)N[C@H](C(=O)N[C@H](C(=O)N[C@@H](CC(=O)O)C(=O)O)[C@@H](C)O)[C@@H](C)CC)[C@@H](C)CC [Compound 46] (H-H[Aib]EGTFTSELATILDEQAAK([AEEA-AEEA-γGlu-C20 diacid])DFIAWLIEHKITD-OH)	0.38

More lines, in order of falling EC50, values ahead:

EC50 [nM]	Structure (SMILES)
0.35	CC[C@H](C)[C@H](NC(=O)[C@H](Cc1ccccc1)NC(=O)[C@H](CC(=O)O)NC(=O)[C@H](CCCNC(=N)N)NC(=O)[C@H](C)NC(=O)[C@H](C)NC(=O)[C@H](CCC(=O)O)NC(=O)[C@H](CCCCNC(=O)CC[C@H](NC(=O)CCCCCCCCCCCCCCCCC(=O)O)C(=O)O)NC(=O)[C@H](CC(=O)O)NC(=O)[C@H](CC(C)C)NC(=O)[C@@H](NC(=O)[C@@H](NC(=O)[C@H](C)NC(=O)[C@H](CC(C)C)NC(=O)[C@H](CCC(=O)O)NC(=O)[C@H](CO)NC(=O)[C@H](CO)NC(=O)[C@H](Cc1ccccc1)NC(=O)[C@@H](NC(=O)CNC(=O)[C@H](CCC(=O)O)NC(=O)C(C)(C)NC(=O)[C@@H](N)Cc1c[nH]cn1)[C@@H](C)O)[C@@H](C)O)[C@@H](C)CC)C(=O)N[C@@H](C)C(=O)N[C@@H](Cc1c[nH]c2ccccc12)C(=O)N[C@@H](CC(C)C)C(=O)N[C@H](C(=O)N[C@@H](CCC(=O)O)C(=O)N[C@@H](Cc1c[nH]cn1)C(=O)N[C@@H](CCCCN)C(=O)N[C@H](C(=O)N[C@H](C(=O)N[C@@H](CC(=O)O)C(=O)O)[C@@H](C)O)[C@@H](C)CC)[C@@H](C)CC [Compound 1] (HELM PEPTIDE1{H.[Aib].E.G.T.F.S.S.E.L.A.T.I.L.D.K.E.A.A.R.D.F.I.A.W.L.I.E.H.K.I.T.D}|PEPTIDE2{[O=C(O)CCCCCCCCCCCCCCCCC(=O)[*:2]].[gGlu]}$PEPTIDE1,PEPTIDE2,16:R3-2:R2$$$V2.0)
0.18	CC[C@H](C)[C@H](NC(=O)[C@H](Cc1ccccc1)NC(=O)[C@H](CC(=O)O)NC(=O)[C@H](CCCCNC(=O)COCCOCCNC(=O)COCCOCCNC(=O)[C@H](CCCCN)NC(=O)[C@H](CCC(=O)O)NC(=O)[C@H](CCCCN)NC(=O)CC[C@H](NC(=O)CCCCCCCCCCCCCCCCCCC(=O)O)C(=O)O)NC(=O)[C@H](C)NC(=O)[C@H](C)NC(=O)[C@H](CCC(N)=O)NC(=O)[C@H](CCC(=O)O)NC(=O)[C@H](CC(=O)O)NC(=O)[C@H](CC(C)C)NC(=O)[C@@H](NC(=O)[C@@H](NC(=O)[C@H](C)NC(=O)[C@H](CC(C)C)NC(=O)[C@H](CCC(=O)O)NC(=O)[C@H](CO)NC(=O)[C@@H](NC(=O)[C@H](Cc1ccccc1)NC(=O)[C@H](CO)NC(=O)CNC(=O)[C@H](CCC(=O)O)NC(=O)C(C)(C)NC(=O)[C@@H](N)Cc1c[nH]cn1)[C@@H](C)O)[C@@H](C)O)[C@@H](C)CC)C(=O)N[C@@H](C)C(=O)N[C@@H](Cc1c[nH]c2ccccc12)C(=O)N[C@@H](CC(C)C)C(=O)N[C@H](C(=O)N[C@@H](CCC(=O)O)C(=O)N[C@@H](Cc1c[nH]cn1)C(=O)N[C@@H](CCCCN)C(=O)N[C@H](C(=O)N[C@H](C(=O)N[C@@H](CC(=O)O)C(=O)O)[C@@H](C)O)[C@@H](C)CC)[C@@H](C)CC [Compound 66] (H-H[Aib]EGSFTSELATILDEQAAK([AEEA-AEEA-Lys-Glu-Lys-γGlu-C20 diacid])DFIAWLIEHKITD-OH)
0.11	CC[C@H](C)[C@H](NC(=O)[C@H](Cc1ccccc1)NC(=O)[C@H](CC(=O)O)NC(=O)[C@H](CCCNC(=N)N)NC(=O)[C@H](C)NC(=O)[C@H](C)NC(=O)[C@H](CC(C)C)NC(=O)[C@H](CCCCNC(=O)CC[C@H](NC(=O)CCCCCCCCCCCCCCCCC(=O)O)C(=O)O)NC(=O)[C@H](CC(=O)O)NC(=O)[C@H](CC(C)C)NC(=O)[C@@H](NC(=O)[C@@H](NC(=O)[C@H](C)NC(=O)[C@H](CC(C)C)NC(=O)[C@H](CCC(=O)O)NC(=O)[C@H](CO)NC(=O)[C@@H](NC(=O)[C@H](Cc1ccccc1)NC(=O)[C@@H](NC(=O)CNC(=O)[C@H](CCC(=O)O)NC(=O)C(C)(C)NC(=O)[C@@H](N)Cc1c[nH]cn1)[C@@H](C)O)[C@@H](C)O)[C@@H](C)O)[C@@H](C)CC)C(=O)N[C@@H](C)C(=O)N[C@@H](Cc1c[nH]c2ccccc12)C(=O)N[C@@H](CC(C)C)C(=O)N[C@H](C(=O)N[C@@H](CCC(=O)O)C(=O)N[C@@H](Cc1c[nH]cn1)C(=O)N[C@@H](CCCCN)C(=O)N[C@H](C(=O)N[C@H](C(=O)N[C@@H](CC(=O)O)C(=O)O)[C@@H](C)O)[C@@H](C)CC)[C@@H](C)CC [Compound 12] (HELM PEPTIDE1{H.[Aib].E.G.T.F.T.S.E.L.A.T.I.L.D.K.L.A.A.R.D.F.I.A.W.L.I.E.H.K.I.T.D}|PEPTIDE2{[O=C(O)CCCCCCCCCCCCCCCCC(=O)[*:2]].[gGlu]}$PEPTIDE1,PEPTIDE2,16:R3-2:R2$$$V2.0)
